In US10428062B2, “Geminal substituted aminobenzisoxazole compounds as agonists of α7-nicotinic acetylcholine receptors” (Forum Pharmaceuticals, Inc., priority 2015, dated 2019):
Structures can show the parent of a compound that is named as a salt.

Molecular target: recombinantly expressed human α7-nAChR (Homo sapiens, UniProt P36544)
Assay: not given
Conditions: [125I] α-BTX radioligand, Feuerbach et al., Br. J. Pharmacol., 2014, read-out: Ki (lit); cited from earlier work

Sequence of recombinantly expressed human α7-nAChR (P36544 23-502): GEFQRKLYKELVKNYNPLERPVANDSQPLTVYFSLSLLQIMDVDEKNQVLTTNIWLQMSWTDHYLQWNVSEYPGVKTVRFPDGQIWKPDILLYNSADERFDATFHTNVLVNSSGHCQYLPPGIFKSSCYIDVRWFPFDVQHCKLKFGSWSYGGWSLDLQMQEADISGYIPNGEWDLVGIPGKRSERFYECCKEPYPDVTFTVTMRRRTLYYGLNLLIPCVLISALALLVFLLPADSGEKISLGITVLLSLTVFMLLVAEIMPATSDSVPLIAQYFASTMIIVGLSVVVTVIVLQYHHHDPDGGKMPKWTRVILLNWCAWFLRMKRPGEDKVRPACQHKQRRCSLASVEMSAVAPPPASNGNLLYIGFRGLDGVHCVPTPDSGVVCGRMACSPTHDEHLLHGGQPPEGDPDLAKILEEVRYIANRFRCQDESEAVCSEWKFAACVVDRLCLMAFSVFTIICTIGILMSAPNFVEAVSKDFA

Row | Compound | Ki
1 | Cc1ccc(-c2ccc(OC3CN4CCC3CC4)cn2)cc1 (centres unmarked) [AQW051] | 28 nM

Molecular target: human α7 nAChR (Homo sapiens, UniProt P36544)
Sequence (P36544 23-502): as above
Assay: not given
Type: binding
Conditions: above described assay provided by Cerep

Row | Compound | Ki
2 | Cc1ccc(-c2ccc(OC3CN4CCC3CC4)cn2)cc1 (centres unmarked) [AQW051] | 255 nM

Molecular target: T1, human 5-HT3 serotonin receptors (Homo sapiens, UniProt P46098)
T1 sequence (P46098 24-478): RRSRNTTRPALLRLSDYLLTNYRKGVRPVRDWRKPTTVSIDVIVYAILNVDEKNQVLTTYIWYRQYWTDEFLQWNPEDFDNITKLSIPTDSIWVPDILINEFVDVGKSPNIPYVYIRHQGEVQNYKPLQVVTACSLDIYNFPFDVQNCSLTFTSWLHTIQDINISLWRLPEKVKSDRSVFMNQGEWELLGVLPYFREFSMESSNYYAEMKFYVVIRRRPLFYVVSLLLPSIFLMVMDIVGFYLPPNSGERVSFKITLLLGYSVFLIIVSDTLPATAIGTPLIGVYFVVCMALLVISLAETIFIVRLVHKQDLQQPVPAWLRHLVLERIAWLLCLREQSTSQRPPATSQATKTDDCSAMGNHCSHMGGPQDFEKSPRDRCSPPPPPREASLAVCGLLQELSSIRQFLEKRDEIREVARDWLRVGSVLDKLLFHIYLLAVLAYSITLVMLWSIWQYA
Assay: [3H]BRL 43694 competition binding assay (Cerep)
Conditions: not given

Row | Compound | Ki
3 | Clc1ccc2c(NC3C4CCN(CC4)C34CC4)noc2c1 (racemic) [rac-16, 6-chloro-N-(1′-azaspiro[cyclopropane-1,2′-bicyclo[2.2.2]octan]-3′-yl)benzo[d]isoxazol-3-amine hydrochloride] | 1800 nM
4 | Clc1ccc2c(N[C@@H]3C4CCN(CC4)C34CC4)noc2c1Cl [(R)-19, (R)-6,7-dichloro-N-(1′-azaspiro[cyclopropane-1,2′-bicyclo[2.2.2]octan]-3′-yl)benzo[d]isoxazol-3-amine hydrochloride] | 100 nM
5 | Cc1ccc2c(N[C@@H]3C4CCN(CC4)C34CC4)noc2c1Cl [Compound (R)-28, (R)-7-chloro-6-methyl-N-(1′-azaspiro[cyclopropane-1,2′-bicyclo[2.2.2]octan]-3′-yl)benzo[d]isoxazol-3-amine hydrochloride] | 66 nM

Same assay, conditions: CHO cell membranes expressing human 5-HT3 receptors, [3H]BRL 43694, 120 min at room temperature; read-out: h-5HT3 Ki

Row | Compound | Ki
6 | CC1(C)C(Nc2noc3cc(Cl)ccc23)C2CCN1CC2 (racemic) [rac-1, 6-chloro-N-(2,2-dimethylquinuclidin-3-yl)benzo[d]isoxazol-3-amine hydrochloride] | 2700 nM
7 | CC1(C)[C@H](Nc2noc3cc(Cl)ccc23)C2CCN1CC2 [Compound (R)-1, (R)-6-chloro-N-(2,2-dimethylquinuclidin-3-yl)benzo[d]isoxazol-3-amine] | 2600 nM
8 | CC1(C)[C@H](Nc2noc3c(F)c(Cl)ccc23)C2CCN1CC2 [Compound (R)-2, (R)-6-chloro-N-(2,2-dimethylquinuclidin-3-yl)-7-fluorobenzo[d]isoxazol-3-amine hydrochloride] | 3150 nM
9 | COc1ccc2c(N[C@@H]3C4CCN(CC4)C3(C)C)noc2c1 [Compound (R)-3, (R)—N-(2,2-dimethylquinuclidin-3-yl)-6-methoxybenzo[d]isoxazol-3-amine hydrochloride] | > 10000 nM
10 | CC1(C)[C@H](Nc2noc3c(Cl)c(Cl)ccc23)C2CCN1CC2 [Compound (R)-4, (R)-6,7-dichloro-N-(2,2-dimethylquinuclidin-3-yl)benzo[d]isoxazol-3-amine hydrochloride] | 130 nM
11 | COc1c(Cl)ccc2c(N[C@@H]3C4CCN(CC4)C3(C)C)noc12 [Compound (R)-5, (R)-6-chloro-N-(2,2-dimethylquinuclidin-3-yl)-7-methoxybenzo[d]isoxazol-3-amine hydrochloride] | 450 nM
12 | Cc1ccc2c(N[C@@H]3C4CCN(CC4)C3(C)C)noc2c1 [Compound (R)-6, (R)—N-(2,2-dimethylquinuclidin-3-yl)-6-methylbenzo[d]isoxazol-3-amine hydrochloride] | 3500 nM
13 | Cc1ccc2c(N[C@@H]3C4CCN(CC4)C3(C)C)noc2c1F [Compound (R)-7, (R)—N-(2,2-dimethylquinuclidin-3-yl)-7-fluoro-6-methylbenzo[d]isoxazol-3-amine hydrochloride] | 2100 nM
14 | CC1(C)[C@H](Nc2noc3c(Cl)c(F)ccc23)C2CCN1CC2 [Compound (R)-8, (R)-7-chloro-N-(2,2-dimethylquinuclidin-3-yl)-6-fluorobenzo[d]isoxazol-3-amine hydrochloride] | 170 nM
15 | Cc1cc2onc(N[C@@H]3C4CCN(CC4)C3(C)C)c2cc1F [Compound (R)-9, (R)—N-(2,2-dimethylquinuclidin-3-yl)-5-fluoro-6-methylbenzo[d]isoxazol-3-amine hydrochloride] | > 10000 nM
16 | Cc1c(Cl)ccc2c(N[C@@H]3C4CCN(CC4)C3(C)C)noc12 [Compound (R)-10, (R)-6-chloro-N-(2,2-dimethylquinuclidin-3-yl)-7-methylbenzo[d]isoxazol-3-amine hydrochloride] | 380 nM
17 | CC1(C)[C@H](Nc2noc3cc(Cl)c(F)cc23)C2CCN1CC2 [Compound (R)-11, (R)-6-chloro-N-(2,2-dimethylquinuclidin-3-yl)-5-fluorobenzo[d]isoxazol-3-amine hydrochloride] | > 10000 nM
18 | CCOc1c(Cl)ccc2c(N[C@@H]3C4CCN(CC4)C3(C)C)noc12 [Compound (R)-12, (R)-6-chloro-N-(2,2-dimethylquinuclidin-3-yl)-7-ethoxybenzo[d]isoxazol-3-amine hydrochloride] | > 10000 nM
19 | Cc1ccc2c(N[C@@H]3C4CCN(CC4)C3(C)C)noc2c1Cl [Compound (R)-13, (R)-7-chloro-N-(2,2-dimethylquinuclidin-3-yl)-6-methylbenzo[d]isoxazol-3-amine hydrochloride] | 150 nM
20 | CC1(C)[C@H](Nc2noc3c(C(F)(F)F)c(Cl)ccc23)C2CCN1CC2 [Compound (R)-14, (R)-6-chloro-N-(2,2-dimethylquinuclidin-3-yl)-7-(trifluoromethyl)benzo[d]isoxazol-3-amine hydrochloride] | > 10000 nM
21 | Clc1ccc2c(N[C@@H]3C4CCN(CC4)C34CC4)noc2c1 [Compound (R)-16, (R)-6-chloro-N-(1′-azaspiro[cyclopropane-1,2′-bicyclo[2.2.2]octan]-3′-yl)benzo[d]isoxazol-3-amine] | 1630 nM
22 | Fc1c(Cl)ccc2c(N[C@@H]3C4CCN(CC4)C34CC4)noc12 [Compound (R)-17, (R)-6-chloro-7-fluoro-N-(1′-azaspiro[cyclopropane-1,2′-bicyclo[2.2.2]octan]-3′-yl)benzo[d]isoxazol-3-amine hydrochloride] | 920 nM
23 | COc1ccc2c(N[C@@H]3C4CCN(CC4)C34CC4)noc2c1 [Compound (R)-18, (R)-6-methoxy-N-(1′-azaspiro[cyclopropane-1,2′-bicyclo[2.2.2]octan]-3′-yl)benzo[d]isoxazol-3-amine hydrochloride] | > 10000 nM
24 | COc1c(Cl)ccc2c(N[C@@H]3C4CCN(CC4)C34CC4)noc12 [Compound (R)-20, (R)-6-chloro-7-methoxy-N-(1′-azaspiro[cyclopropane-1,2′-bicyclo[2.2.2]octan]-3′-yl)benzo[d]isoxazol-3-amine hydrochloride] | 200 nM
25 | Cc1ccc2c(N[C@@H]3C4CCN(CC4)C34CC4)noc2c1 [Compound (R)-21, (R)-6-methyl-N-(1′-azaspiro[cyclopropane-1,2′-bicyclo[2.2.2]octan]-3′-yl) benzo[d]isoxazol-3-amine hydrochloride] | 1600 nM
26 | Cc1ccc2c(N[C@@H]3C4CCN(CC4)C34CC4)noc2c1F [Compound (R)-22, (R)-7-fluoro-6-methyl-N-(1′-azaspiro[cyclopropane-1,2′-bicyclo[2.2.2]octan]-3′-yl)benzo[d]isoxazol-3-amine hydrochloride] | 540 nM
27 | Fc1ccc2c(N[C@@H]3C4CCN(CC4)C34CC4)noc2c1Cl [Compound (R)-23, (R)-7-chloro-6-fluoro-N-(1′-azaspiro[cyclopropane-1,2′-bicyclo[2.2.2]octan]-3′-yl)benzo[d]isoxazol-3-amine hydrochloride] | 110 nM
28 | Cc1cc2onc(N[C@@H]3C4CCN(CC4)C34CC4)c2cc1F [Compound (R)-24, (R)-5-fluoro-6-methyl-N-(1′-azaspiro[cyclopropane-1,2′-bicyclo[2.2.2]octan]-3′-yl) benzo[d]isoxazol-3-amine hydrochloride] | 3100 nM
29 | Cc1c(Cl)ccc2c(N[C@@H]3C4CCN(CC4)C34CC4)noc12 [Compound (R)-25, (R)-6-chloro-7-methyl-N-(1′-azaspiro[cyclopropane-1,2′-bicyclo[2.2.2]octan]-3′-yl)benzo[d]isoxazol-3-amine hydrochloride] | 170 nM
30 | Fc1cc2c(N[C@@H]3C4CCN(CC4)C34CC4)noc2cc1Cl [Compound (R)-26, (R)-6-chloro-5-fluoro-N-(1′-azaspiro[cyclopropane-1,2′-bicyclo[2.2.2]octan]-3′-yl)benzo[d]isoxazol-3-amine hydrochloride] | 2800 nM
31 | CCOc1c(Cl)ccc2c(N[C@@H]3C4CCN(CC4)C34CC4)noc12 [Compound (R)-27, (R)-6-chloro-7-ethoxy-N-(1′-azaspiro[cyclopropane-1,2′-bicyclo[2.2.2]octan]-3′-yl)benzo[d]isoxazol-3-amine hydrochloride] | 5600 nM
32 | FC(F)(F)c1c(Cl)ccc2c(N[C@@H]3C4CCN(CC4)C34CC4)noc12 [Compound (R)-29, (R)-6-chloro-N-(1′-azaspiro[cyclopropane-1,2′-bicyclo[2.2.2]octan]-3′-yl)-7-(trifluoromethyl)benzo[d]isoxazol-3-amine hydrochloride] | 4300 nM
